Experimental data reported in patent US20140186872A1, “BISACODYL AND ITS ANALOGUES AS DRUGS FOR USE IN THE TREATMENT OF CANCER” (CENTRE NATIONAL DE LA RECHERCHE SCIENTIFIQUE- CNRS, priority 2011, published 2014).
Structures can show the parent of a compound that is named as a salt.

How the values were obtained:
[1] = test system: proliferating TG1 glioblastoma stem cells; test: ATP-Glo (Cell Titer Glo) cell viability, dose/response, proliferating TG1 cells; assay type: cell-based, human; settings: for EC50: Homo sapiens, Glioblastoma stem cell, TG1-A P, experimental protocol of Example 12, ATP-Glo; for EC50 / effect on survival of proliferating TG1 cells: 24 h; for effect on survival of proliferating TG1 cells: own culture medium
Experimental: The TG1 proliferating cells correspond to cells for which medium is renewed regularly, twice weekly.
The proliferating cells were put back in 1 mL of fresh NS34 medium, dissociated mechanically by pipetting up and down 100 times with a P1000 micropipette preset to 400 μl and counted with Trypan Blue, after dilution in fresh NS34 medium, to obtain a final suspension of 6×10^5 cells/mL.
(§1) 50 μl of solution containing cells was deposited per well in a 96-well plate (Greiner #655090).
(§2) The test compounds, in solution of 100% of DMSO were diluted in culture medium: in the absence of DMSO (medium 0% DMSO) or in the presence of 2% of DMSO (medium 2% DMSO) at concentrations of 200 μM, 100 μM, 80 μM, 60 μM, 40 μM, 20 μM, 10 μM and 2 μM. For all these dilutions the final concentration in DMSO was 2% (see Table 1 below; volumes shown make it possible to construct dose/response curves, in triplicate, for 1 compound on a 96-well plate—FIG. 1)
50 μL of solution of compound was added at the concentrations specified above to 50 μL of cells in the plate (FIG. 1) (Final concentration of compounds in contact with the cells: 100 μM, 50 μM, 40 μM, 30 μM, 20 μM, 10 μM, 5 μM, 1 μM (in 1% of final DMSO). Final concentration of positive control: 50 μM in 1% of final DMSO. Final concentration of negative control: 1% final DMSO). […]
(§3) The test of cell viability was carried out using the Cell Titer Glo kit (Promega #G7571). After thawing of the Cell Titer Glo reagent (1 Buffer vial+1 Substrate vial per plate) protected from the light, the contents of the Buffer vial were transferred to the Substrate vial. 100 μl of Cell Titer Glo reagent was deposited on the cells treated with the compounds.
(§4) The results, which were given for each well in strokes per second (sps), were converted to percentage cell survival relative to the control 1% of DMSO, which was fixed at 100%.
(§5) The EC50 was determined as the concentration that gives 50% of the response.
(§6) Glioblastoma (WHO grade IV glioma) stem cells (TG1, TG16 and OB1) were derived from tumor samples of 3 patients at Sainte Anne Hospital (Paris, France), as previously described (48) and expanded as neurosphere cultures. In continuously proliferating cultures, neurospheres were mechanically dissociated into a single-cell suspension twice a week with 90% renewal of their culture medium. Quiescent glioblastoma stem cells were obtained by non-renewal of the culture medium for 9-16 days following cell seeding. The non-proliferating state was assessed by decreased ability of the cells to incorporate EdU (5-ethynyl-2′-deoxyuridine) using the Click-iT™ EdU Flow Cytometry Assay Kit (Invitrogen, France) according to the manufacturer's instructions. […]
(§7) Confirmed hit compounds from the primary and secondary screens were purchased from Prestwick Chemical and dissolved in DMSO to obtain 10 mM concentrated stock solutions. Hit compound validation was obtained through dose-response curves on the viability of TG1 glioblastoma stem cells under the same experimental conditions (cell density, treatment duration) as described for the primary and secondary screens. Each compound was tested in triplicate in at least three independent experiments on proliferating and quiescent glioblastoma stem TG1 cells.
(§8) The EC50 value was determined for each compound by fitting the data points according to the following equation: […]
(§9) where y represents the expected response (expressed as a percentage of cell viability), x is the chemical compound concentration, Smax and Smin are the maximum and minimum viability responses recorded, respectively, and n is the Hill coefficient. Curve fitting was performed using the Microsoft Excel Solver component.

[2] = test system: quiescent TG1 glioblastoma stem cells; test: ATP-Glo (Cell Titer Glo) cell viability, dose/response, quiescent TG1 cells; assay type: cell-based, human; settings: 24 h; for EC50: Homo sapiens, Glioblastoma stem cell, TG1-A Q, experimental protocol of Example 12, ATP-Glo, read-out: EC50 Quiescent TG1; for effect on survival of quiescent TG1 cells (words): own conditioned medium
Experimental: The TG1 cells were put into quiescence by keeping the cells in culture without changing the medium from 9 to 16 days. The state of quiescence was verified by non-incorporation of nucleotides into the DNA of the cells (see example 9).
The quiescent cells were put back in 1 mL of conditioned medium, dissociated mechanically by pipetting up and down 100 times with a P1000 micropipette preset to 400 μl and counted with Trypan Blue, after dilution in conditioned medium, to obtain a final suspension of 8.10^5 cells/mL.
as §1, §2
50 μL of solution of compound was added at the concentrations specified above to 50 μL of cells in the plate (FIG. 1) (Final concentration of compounds in contact with the cells: 100 μM, 50 μM, 40 μM, 30 μM, 20 μM, 10 μM, 5 μM, 1 μM (in 1% of final DMSO). Final concentration of positive control: 50 μM in 1% of final DMSO. Final concentration of negative control: 1% final DMSO).
The cells were incubated for 23 to 24 hours at 37° C. in an incubator in the presence of 5% CO2 (under humid atmosphere at 95% provided by a reservoir filled with distilled water).
as §3, §4, §5, §6, §7, §8, §9

[3] = test system: human fetal neural stem cells (f-NSC cells); test: ATP-Glo cell viability on fetal neural stem cells; assay type: cell-based

| Compound | EC50 [1] [µM] | EC50 [2] [µM] | further results |
| --- | --- | --- | --- |
| Oc1ccc(C(c2ccc(O)cc2)c2cccnc2)cc1 | > 100 | 8 ± 3 | – |
| Oc1ccc(C(c2ccncc2)c2ccc(O)cc2)cc1 | > 100 | 39 ± 2 | – |
| CC(=O)Oc1ccc(C(c2ccc(O)cc2)c2ccccn2)cc1 (stereo not shown) | > 100 | 1 ± 0.5 | – |
| CC(=O)Oc1ccc(C(c2ccc(O[Si](C)(C)C(C)(C)C)cc2)c2ccccn2)cc1 (stereo not shown) | 12 ± 0.1 | 12.1 ± 0.6 | – |
| CC(C)(C)[Si](C)(C)Oc1ccc(C(c2ccc(O)cc2)c2ccccn2)cc1 (stereo not shown) | 13 ± 5 | 13 ± 3 | – |
| COc1ccc(C(c2ccc(O)cc2)c2ccccn2)cc1 (stereo not shown) | > 100 | 8 ± 6 | – |
| C#CCOc1ccc(C(c2ccc(O)cc2)c2ccccn2)cc1 (stereo not shown) | 39 ± 6 | 3 ± 1 | – |
| CCCC(C)Oc1ccc(C(c2ccc(O)cc2)c2ccccn2)cc1 (stereo not shown) | 55 ± 8 | 40 ± 10 | – |
| CCCCCCCCCOc1ccc(C(c2ccc(OC(C)=O)cc2)c2ccccn2)cc1 (stereo not shown) | 25.5 ± 0.6 | 22 ± 2 | – |
| CCCCCCCCCOc1ccc(C(c2ccc(O)cc2)c2ccccn2)cc1 (stereo not shown) | 25 ± 4 | 22 ± 3 | – |
| c1ccc(C(c2ccccc2)c2ccccn2)cc1 | > 100 | 81.9 | – |
| Nc1ncccc1C(c1ccc(O)cc1)c1ccc(O)cc1 | > 100 | 32 ± 2 | – |
| Clc1ccc(C(c2ccc(Cl)cc2)c2ccccn2)cc1 | 34 ± 3 | 35.5 ± 4.5 | – |
| Oc1ccc(C(c2ccccc2)c2ccc(O)cc2)cc1 | 60.8 ± 10.4 | 14.2 ± 8.8 | – |
| Oc1ccc(C(c2ccccn2)c2ccccc2O)cc1 (stereo not shown) | > 100 | 57.6 ± 0.7 | – |
| Oc1ccc(C(c2ccccc2)c2ccccn2)cc1 (stereo not shown) | > 100 | 17.1 ± 6.3 | – |
| Oc1ccc(C(c2ccc(Cl)cc2)c2ccccn2)cc1 (stereo not shown) | > 100 | 4 ± 1.4 | – |
| Oc1ccc(C(c2ccc(O)cc2)c2cncc(Br)c2)cc1 | > 100 | 5 | – |
| Oc1ccc(C(c2ccc(C(F)(F)F)cc2)c2ccccn2)cc1 (stereo not shown) | > 100 | 17.3 | – |
| CC(=O)Oc1ccc(C(c2ccc(O)cc2)c2ccccn2)cc1 (racemic) [Compound 3, 4-((4-Hydroxyphenyl)(pyridin-2-yl)methyl)phenyl acetate] | – | – | effect on survival of quiescent TG1 cells (words) [2]: effect similar to that described for bisacodyl; effect on survival / toxicity, f-NSC cells [3]: little or no effect |
| COc1ccc(C(c2ccc(O)cc2)c2ccccn2)cc1 (racemic) [Compound 6, 4-((4-Methoxyphenyl)(pyridin-2-yl)methyl)phenol] | – | – | effect on survival of quiescent TG1 cells (words) [2]: effect similar to that described for bisacodyl; effect on survival / toxicity, f-NSC cells [3]: little or no effect |
| C#CCOc1ccc(C(c2ccc(O)cc2)c2ccccn2)cc1 (racemic) [Compound 9, 4-((4-(Prop-2-yn-1-yloxy)phenyl)(pyridin-2-yl)methyl)phenol] | – | – | effect on survival of proliferating TG1 cells [1]: also on the proliferating cells; concentrations causing a considerable decrease in survival of proliferating cells ([1]; proliferating TG1 cells): above 40 μM; effect on survival of quiescent TG1 cells (words) [2]: active on the quiescent cells; concentration from which a large decrease in survival of NSC cells occurs [3]: ≥ 40 µM |
| O=C(Oc1ccc(C(c2ccc(OC(=O)C(F)(F)F)cc2)c2ccccn2)cc1)C(F)(F)F [Compound 5, (Pyridin-2-ylmethylene)bis(4,1-phenylene)bis(2,2,2-trifluoroacetate)] | – | – | effect on survival of quiescent TG1 cells (words) [2]: effect similar to that described for bisacodyl; effect on survival / toxicity, f-NSC cells [3]: little or no effect |
| COc1ccc(C(c2ccc(OC(C)=O)cc2)c2ccccn2)cc1 (stereo not shown) [Compound 7, 4-((4-Methoxyphenyl)(pyridin-2-yl)methyl)phenyl acetate] | – | – | effect on survival of quiescent TG1 cells (words) [2]: effect similar to that described for bisacodyl; effect on survival / toxicity, f-NSC cells [3]: little or no effect |
| CCCCCCCCNC(C)C(O)c1ccc(SC(C)C)cc1 (stereo not shown) [Suloctidil, reference compound] | – | – | effect on survival of proliferating TG1 cells [1]: overlapping cytotoxic activity; effect on survival of quiescent TG1 cells (words) [2]: overlapping cytotoxic activity |
| OCCN1CCN(CC/C=C2/c3ccccc3Sc3ccc(Cl)cc32)CC1 [Zuclopenthixol HCl, reference compound] | – | – | effect on survival of proliferating TG1 cells [1]: more selective effects |
| CC(=O)Oc1ccc(C(c2ccc(OC(C)=O)cc2)c2ccccn2)cc1 [drawing 51] | > 100 | 1.6 ± 0.3 | – |
| Oc1ccc(C(c2ccc(O)cc2)c2ccccn2)cc1 [drawing 52] | > 100 | 1 ± 0.5 | – |
| O=C(Oc1ccc(C(c2ccc(OC(=O)C(F)(F)F)cc2)c2ccccn2)cc1)C(F)(F)F [drawing 57] | > 100 | 2 ± 1 | – |
| COc1ccc(C(c2ccc(OC(C)=O)cc2)c2ccccn2)cc1 (stereo not shown) [drawing 60] | > 100 | 9 ± 4 | – |
